Results published in ChEMBL document CHEMBL1139276, “Diarylimidazolyl oxadiazole and thiadiazole derivatives as cannabinoid CB1 receptor antagonists” (Bioorg Med Chem Lett, 2009).
pIC50: −log10 of the molar value.

What was measured:
Cannabinoid receptor 1 = Cannabinoid receptor 1 (Rattus norvegicus, UniProt P20272); assay: Displacement of [3H]CP-55940 from CB1 receptor in Sprague-Dawley rat cerebellar membrane; set-up: species or system Cerebellum
Cannabinoid receptor 2 = Cannabinoid receptor 2 (Homo sapiens, UniProt P34972); assay: Displacement of [3H]WIN-55212-2 from human CB2 receptor expressed in CHO cells; assay type: cell-based
Chain of Cannabinoid receptor 2 (P34972 whole entry): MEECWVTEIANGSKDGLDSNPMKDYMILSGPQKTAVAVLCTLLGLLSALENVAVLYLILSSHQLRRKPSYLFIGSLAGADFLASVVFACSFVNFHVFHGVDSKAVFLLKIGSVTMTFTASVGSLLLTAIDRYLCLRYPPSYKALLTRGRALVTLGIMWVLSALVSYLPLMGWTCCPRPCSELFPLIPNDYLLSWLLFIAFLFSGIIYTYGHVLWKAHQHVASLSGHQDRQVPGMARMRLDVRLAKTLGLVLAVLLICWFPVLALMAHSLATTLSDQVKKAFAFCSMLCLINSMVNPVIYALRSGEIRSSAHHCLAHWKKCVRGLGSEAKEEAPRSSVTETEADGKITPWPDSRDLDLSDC

Chain of Cannabinoid receptor 1 (P20272 whole entry): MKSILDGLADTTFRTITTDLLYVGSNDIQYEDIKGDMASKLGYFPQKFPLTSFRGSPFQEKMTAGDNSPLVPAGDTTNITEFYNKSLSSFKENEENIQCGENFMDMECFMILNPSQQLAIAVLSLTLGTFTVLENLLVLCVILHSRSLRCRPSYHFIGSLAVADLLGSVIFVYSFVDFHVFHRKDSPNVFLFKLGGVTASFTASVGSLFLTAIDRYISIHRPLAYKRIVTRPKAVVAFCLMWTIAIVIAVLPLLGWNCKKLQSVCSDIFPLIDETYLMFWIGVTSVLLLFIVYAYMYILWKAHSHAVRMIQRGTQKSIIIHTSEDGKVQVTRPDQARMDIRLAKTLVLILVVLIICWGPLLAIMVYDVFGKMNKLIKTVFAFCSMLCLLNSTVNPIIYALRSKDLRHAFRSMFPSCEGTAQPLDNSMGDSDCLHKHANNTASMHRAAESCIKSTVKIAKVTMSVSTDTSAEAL

Row | SMILES | pIC50 (Cannabinoid receptor 1) | pIC50 (Cannabinoid receptor 2)
1 | Cc1c(-c2nnc(C3(C(F)(F)F)CC3)o2)nc(-c2ccc(Cl)cc2Cl)n1-c1ccc(Cl)cc1 | 7.26 | –
2 | Cc1c(-c2nnc(C(C)(C)C)s2)nc(-c2ccccc2Cl)n1-c1ccc(Cl)cc1 | 7.90 | –
3 | CCc1c(-c2nnc(C3(c4ccc(C)cc4)CC3)o2)nc(-c2ccc(Cl)cc2Cl)n1-c1ccc(Br)cc1 | – | < 5.00
4 | CCc1c(-c2nnc(C3(c4ccc(Cl)cc4)CCC3)o2)nc(-c2ccc(Cl)cc2Cl)n1-c1ccc(Br)cc1 | – | < 5.00
5 | Cc1c(-c2nnc(C3(c4ccc(Cl)cc4)CC3)s2)nc(-c2ccc(Cl)cc2Cl)n1-c1ccc(Cl)cc1 | 8.03 | –
6 | Cc1c(-c2nnc(C3(C(F)(F)F)CC3)s2)nc(-c2ccc(Cl)cc2Cl)n1-c1ccc(Cl)cc1 | 7.47 | –
7 | CCc1c(-c2nnc(C3(c4ccc(Cl)cc4Cl)CC3)s2)nc(-c2ccc(Cl)cc2Cl)n1-c1ccc(Br)cc1 | – | < 5.00
8 | CCc1c(-c2nnc(C(C)(C)C)o2)nc(-c2ccccc2Cl)n1-c1ccc(Cl)cc1 | 7.67 | –
9 | CCc1c(-c2nnc(C3(c4ccccc4)CC3)s2)nc(-c2ccc(Cl)cc2Cl)n1-c1ccc(Br)cc1 | – | < 5.00
10 | CCc1c(-c2nnc(C3(c4ccc(OC)cc4)CC3)s2)nc(-c2ccc(Cl)cc2Cl)n1-c1ccc(Br)cc1 | – | < 5.00
11 | Cc1c(-c2nnc(CC(C)C)s2)nc(-c2ccc(Cl)cc2Cl)n1-c1ccc(Cl)cc1 | 7.55 | –
12 | Cc1c(-c2nnc(CC(C)C)o2)nc(-c2ccc(Cl)cc2Cl)n1-c1ccc(Cl)cc1 | 7.40 | –
13 | Cc1c(-c2nnc(C3(c4ccc(Cl)cc4)CC3)o2)nc(-c2ccc(Cl)cc2Cl)n1-c1ccc(Cl)cc1 | 7.82 | –
14 | Cc1c(-c2nnc(C3(C(F)(F)F)CCC3)s2)nc(-c2ccc(Cl)cc2Cl)n1-c1ccc(Cl)cc1 | 8.02 | –
15 | CCc1c(-c2nnc(C3(c4ccc(Cl)cc4Cl)CC3)o2)nc(-c2ccc(Cl)cc2Cl)n1-c1ccc(Br)cc1 | – | < 5.00
16 | Cc1c(-c2nnc(C(C)(C)C)o2)nc(-c2ccccc2Cl)n1-c1ccc(Cl)cc1 | 8.28 | –
17 | Cc1c(-c2nnc(C3(C(F)(F)F)CCC3)o2)nc(-c2ccc(Cl)cc2Cl)n1-c1ccc(Cl)cc1 | 7.78 | –
18 | CCc1c(-c2nnc(C3(c4ccc(C)cc4)CC3)s2)nc(-c2ccc(Cl)cc2Cl)n1-c1ccc(Br)cc1 | – | < 5.00
19 | CCc1c(-c2nnc(C3(c4ccc(Cl)cc4)CCC3)s2)nc(-c2ccc(Cl)cc2Cl)n1-c1ccc(Br)cc1 | – | < 5.00
20 | CCc1c(-c2nnc(C3(c4ccc(Cl)cc4)CC3)s2)nc(-c2ccc(Cl)cc2Cl)n1-c1ccc(Br)cc1 | – | < 5.00
